# “And” between values parts separate entries of the source, which are not always exact repeats. Identical values can stand only once. “Also recorded” adds a separate entry of the source.
# T1: hCEPT1p (Homo sapiens, UniProt Q9Y6K0)
# T1 construct: All of the hCEPT1p detected in S. cerevisiae was full length; made in house; host or cells: S. cerevisiae HJ091 (cpt1::LEU2 ept1-), plasmid pAH9, microsomal membranes
# T1 sequence (Q9Y6K0 1-416): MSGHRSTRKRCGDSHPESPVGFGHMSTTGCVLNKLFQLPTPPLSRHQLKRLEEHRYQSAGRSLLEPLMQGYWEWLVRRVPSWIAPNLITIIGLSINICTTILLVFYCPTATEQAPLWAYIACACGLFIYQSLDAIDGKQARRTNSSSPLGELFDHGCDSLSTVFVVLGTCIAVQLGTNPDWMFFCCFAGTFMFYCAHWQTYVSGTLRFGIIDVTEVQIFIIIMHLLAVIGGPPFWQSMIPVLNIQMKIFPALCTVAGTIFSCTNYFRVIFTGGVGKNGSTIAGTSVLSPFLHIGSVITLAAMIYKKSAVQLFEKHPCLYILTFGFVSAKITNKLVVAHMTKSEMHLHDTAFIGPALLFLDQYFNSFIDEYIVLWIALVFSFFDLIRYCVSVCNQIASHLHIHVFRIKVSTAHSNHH
# T2: hCEPT2 (Homo sapiens, UniProt Q8WUD6)
# T2 construct: A full length cDNA was isolated using the Genetrapper™ system technology; expressed in transfected cells; host or cells: HEK293s cells, plasmid pCMVsport-hCEPT2 (clone from the pCMV-Sport human brain cDNA library), microsomal membranes
# T2 sequence (Q8WUD6 2-406): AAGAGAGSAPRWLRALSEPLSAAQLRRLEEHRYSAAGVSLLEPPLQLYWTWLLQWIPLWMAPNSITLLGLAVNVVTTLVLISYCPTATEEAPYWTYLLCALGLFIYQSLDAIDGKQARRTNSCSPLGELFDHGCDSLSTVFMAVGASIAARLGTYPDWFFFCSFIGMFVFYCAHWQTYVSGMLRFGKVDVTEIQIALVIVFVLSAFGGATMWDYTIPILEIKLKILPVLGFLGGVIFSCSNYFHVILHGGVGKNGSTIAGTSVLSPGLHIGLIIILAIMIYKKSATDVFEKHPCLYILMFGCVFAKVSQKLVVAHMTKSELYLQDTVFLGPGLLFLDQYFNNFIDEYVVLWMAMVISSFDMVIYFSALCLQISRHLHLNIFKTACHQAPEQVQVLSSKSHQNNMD
# B1: hCEPT2: human choline/ethanolaminephosphotransferase 2, SEQ ID NO:4 (protein)
# chain: MAAGAGAGSAPRWLRALSEPLSAAQLRRLEEHRYSAAGVSLLEPPLQLYWTWLLQWIPLWMAPNSITLLGLAVNVVTTLVLISYCPTATEEAPYWTYLLCALGLFIYQSLDAIDGKQARRTNSCSPLGELFDHGCDSLSTVFMAVGASIAARLGTYPDWFFSCSFIGMFVFYCAHWQTYVSGMLRFGKVDVTEIQIALVIVFVLSAFGGATMWDYTIPILEIKLKILPVLGFLGGVIFSCSNYFHVILHGGVGKNGSTIAGTSVLSPGLHIGLIIILAIMIYKKSATDVFEKHPCLYILMFGCVFAKVSQKLVVAHMTKSELYLQDTVFLGPGLLFLDQYFNNFIDEYVVLWMAMVISSFDMVIYFSALCLQISRHLHLNIFKTACHQAPEQVQVLSSKSHQNNMD
# How the values were obtained:
# [1] = target: T1, hCEPT1p; assay: Choline-/ethanolaminephosphotransferase enzyme assay, microsomal membranes of S. cerevisiae HJ091 expressing hCEPT1; assay type: biochemical; conditions: for Specific activity with CDP-choline (in words): CDP-choline as donor, synthesis of PAF, acyl-PAF, di10:0 PtdCho; for Enzyme activity, CDP-choline: phosphobase donor CDP-choline; for Enzyme activity, CDP-choline / Enzyme activity, CDP-ethanolamine: diradylglycerol as acceptor substrate, hCEPT1p in S. cerevisiae HJ091 microsomes; for Enzyme activity, CDP-ethanolamine: phosphobase donor CDP-ethanolamine
# Description: Diradylglycerols or ceramides were dried under nitrogen gas and resuspended in 0.015% (w/v) Tween 20™ by sonication. […] Assays were incubated at 37° C. for 15 min and activity terminated by the addition of 3 ml CHCl3/ CH3OH (2/1, v/v) followed by 1.5 ml 0.9% (w/v) KCl. Tubes were vortexed and phase separation facilitated by centrifugation at 2000 g for 10 min. The aqueous phase was aspirated and the organic phase was washed twice with 1.5 ml 40% (v/v) CH3OH. An aliquot of the organic phase was dried in a scintillation vial and radioactivity was determined.
# [2] = target: T2, hCEPT2; assay: Choline-/ethanolaminephosphotransferase activity of microsomes from HEK293s cells overexpressing hCEPT2; assay type: biochemical
# Text: A full length cDNA was isolated using the Genetrapper™ system technology (Life Technologies). A primer corresponding to the most 5′ RACE extneded sequence in hand, […] (SEQ ID NO: 11) was biotinylated using terminal deoxynucleotide transferase and hybridized in solution to a single stranded human brain cDNA library that had been generated by digestion of the library with Gene II protein and exonuclease III. Avidin bound to magnetic beads was used to selectively precipitate the biotinylated probe/hybridized cDNA complex, thus enriching the library for cDNAs complementary to the oligonucleotide used. The single stranded cDNAs were extended using Klenow and E. coli were transformed and screened for positive clones with the end labeled antisense oligo, […], found within the original EST 67440. Plasmid DNA from positive colonies was amplified and hCEPT2 specific inserts confirmed and sized by PCR.
# Diradylglycerols or ceramides were dried under nitrogen gas and resuspended in 0.015% (w/v) Tween 20™ by sonication. Unless otherwise indicated, assay buffer contained 100 mM Tris-HCl (pH 8.0), 20 mM MgCl2, 1 mM EDTA, 1 mM diradylglycerol or ceramide (final Tween 20 concentration of 0.00375%, w/v), and 10 μg of microsomal protein. […] Assays were incubated at 37° C. for 15 min and activity terminated by the addition of 3 ml CHCl3/ CH3OH (2/1, v/v) followed by 1.5 ml 0.9% (w/v) KCl. Tubes were vortexed and phase separation facilitated by centrifugation at 2000 g for 10 min. The aqueous phase was aspirated and the organic phase was washed twice with 1.5 ml 40% (v/v) CH3OH. An aliquot of the organic phase was dried in a scintillation vial and radioactivity was determined. Samples were routinely analyzed by thin layer chromatography on silica gel plates in a solvent system of CHCl3/CH3OH/NH4OH/H2) (70/30/4/2, v/v) to confirm the synthesis of PtdCho, PtdEtn, and PAF and their analogues.
Molecule,"Enzyme activity, CDP-choline [1] [nmol/min/mg]","Enzyme activity, CDP-ethanolamine [1] [nmol/min/mg]",also measured
CCCCCCCCCCCCCCCCOCC(CO)OC(C)=O (stereo not drawn) [1-O-16:0/2:0],106.0 ± 5.6,,Specific activity with CDP-choline (in words) ([1]; listed as 1O-16:0/2:0): highest specific activities; Specific activity with CDP-choline (in words) ([1]; listed as 16:0/2:0): High activities
NCCOP(=O)(O)OP(=O)(O)OC[C@H]1O[C@@H](n2ccc(N)nc2=O)[C@H](O)[C@@H]1O [CDP-ethanolamine],,,"Vmax(app) ([1]; di18:1 as the diradylglycerol substrate): 12.8 nmol/min/mg; Km ([1]; di18:1 as the diradylglycerol substrate, read-out: Km(app)): 109 µM"
O[C@@H](CS)[C@@H](O)CS [DTT],,,"Effect of DTT on cholinephosphotransferase activity ([1]; DTT 0-5 mM in assay mix, regardless of the diradylglycerol substrate, data not shown): insensitive; also recorded: did not affect"
CCCCCCCC(=O)OC[C@H](CO)OC(=O)CCCCCCC [di8:0],54.9 ± 6.4,3.1 ± 0.4,
CCCCCCCCCC(=O)OCC(CO)OC(=O)CCCCCCCCC (stereo not drawn) [di10:0],172.5 ± 9.8,3.7 ± 0.4,Specific activity with CDP-choline (in words) [1]: highest specific activities
CCCCCCCCCCCC(=O)OCC(CO)OC(=O)CCCCCCCCCCC (stereo not drawn) [di12:0],27.2 ± 6.9,2.7 ± 0.3,
CCCCCCCCCCCCCC(=O)OC[C@H](CO)OC(=O)CCCCCCCCCCCCC [di14:0],6.7 ± 0.2,3.7 ± 0.1,
CCCCCCCCCCCCCCCC(=O)OC[C@H](CO)OC(=O)CCCCCCCCCCCCCCC [di16:0],4.3 ± 0.2,3.5 ± 0.2,
B1,,,"Cholinephosphotransferase activity, mean ([2]; CDP-AA choline, mean of duplicates): 10.673 nmol/min/mg; Cholinephosphotransferase activity ([2]; CDP-AA choline, single determinations): 10.638 nmol/min/mg and 10.708 nmol/min/mg; Ethanolaminephosphotransferase activity, mean ([2]; CDP-AA ethanolamine, mean of duplicates): 2.427 nmol/min/mg; Ethanolaminephosphotransferase activity ([2]; CDP-AA ethanolamine, single determinations): 2.169 nmol/min/mg and 2.685 nmol/min/mg"
